The source of these data is patent US7994209B2, “3-phenoxymethylpyrrolidine compounds” (Theravance, Inc., priority 2009, dated 2011).

The term Ki denotes the equilibrium dissociation constant of an inhibitor or competing ligand from its target.

Assay [1] concerns the target T1, hNET (Homo sapiens, UniProt P23975). In words: hNET neurotransmitter uptake assay (3H-NE), Assay 2. It counts as cell-based. The following applies: norepinephrine reuptake inhibition, 3H-NE uptake, HEK-293 hNET cells (values without asterisk); read-out: NET pIC50 (converted). Set-up: expressed in transfected cells; host or cells: HEK-293. The protocol: (§1) Cells were harvested by centrifugation at 1100 rpm for 5 minutes, washed once by resuspension in PBS, then centrifuged. The supernatant was discarded and the cell pellet resuspended, by gentle trituration, in room temperature Krebs-Ringer bicarbonate buffer containing HEPES (10 mM), CaCl2 (2.2 mM), ascorbic acid (200 μM) and pargyline (200 μM), pH 7.4.
(§2) Test compounds were incubated for 30 minutes at 37° C. with the respective cells, prior to addition of radiolabeled neurotransmitter, ^3H-5-HT (20 nM final concentration), ^3H-NE (50 nM final concentration) or ^3H-DA (100 nM final concentration).

Assay [2] addresses T1, hNET. In words: hNET membrane radioligand binding assay (3H-nisoxetine), Assay 1.
Procedure: Membrane radioligand binding assays were used to measure inhibition of labeled ligand (^3H-citalopram or ^3H-nisoxetine or ^3H-WIN35428) binding to membranes prepared from cells expressing the respective human recombinant transporter (hSERT or hNET or hDAT) in order to determine the pKi values of test compounds at the transporters.
Recombinant human embryonic kidney (HEK-293) derived cell lines stably transfected with hSERT or hNET, respectively, were grown in DMEM medium supplemented with 10% dialyzed FBS (for hSERT) or FBS (for hNET), 100 μg/mL penicillin, 100 μg/mL streptomycin, 2 mM L-glutamine and 250 μg/mL of the aminoglycoside antibiotic G418, in a 5% CO2 humidified incubator at 37° C. When cultures reached 80% confluence, the cells were washed thoroughly in PBS (without Ca^2+ and Mg^2+) and lifted with 5 mM EDTA in PBS. Cells were pelleted by centrifugation, resuspended in lysis buffer (10 mM Tris-HCl, pH7.5 containing 1 mM EDTA), homogenized, pelleted by centrifugation, then resuspended in 50 mM Tris-HCl, pH 7.5 and 10% sucrose at 4° C. Protein concentration of the membrane suspension was determined using a Bio-Rad Bradford Protein Assay kit. Membranes were snap frozen and stored at −80° C.
Binding assays were performed in a 96-well assay plate in a total volume of 200 μl assay buffer (50 mM Tris-HCl, 120 mM NaCl, 5 mM KCl, pH 7.4) with 0.5, 1, and 3 μg membrane protein, for SERT, NET and DAT, respectively.
Stock solutions (10 mM in DMSO) of test compound were prepared and serial dilutions made using Dilution Buffer (50 mM Tris-HCl, 120 mM NaCl, 5 mM KCl, pH 7.4, 0.1% BSA, 400 μM ascorbic acid).
Following a 60 minute incubation at 22° C. (or a period sufficient to reach equilibrium), the membranes were harvested by rapid filtration over a 96-well UniFilter GF/B plate, pretreated with 0.3% polyethyleneimine, and washed 6 times with 300 μl wash buffer (50 mM Tris-HCl, 0.9% NaCl, pH 7.5 at 4° C.). Plates were dried overnight at room temperature, approximately 45 μl of MicroScint™-20 (Perkin Elmer) added and bound radioactivity quantitated via liquid scintillation spectroscopy. Inhibition curves and saturation isotherms were analyzed using GraphPad Prism Software package (GraphPad Software, Inc., San Diego, Calif.). IC50 values were generated from concentration response curves using the Sigmoidal Dose Response (variable slope) algorithm in Prism GraphPad.
For assay [3], the target named is T2, hSERT (Homo sapiens, UniProt P31645). Put plainly: hSERT membrane radioligand binding assay (3H-citalopram), Assay 1. Particulars: SERT pKi, hSERT HEK-293 membranes, 1.0 nM 3H-citalopram; values given as lower bounds.
For assay [4], the target named is T2, hSERT. Put plainly: hSERT neurotransmitter uptake assay (3H-5-HT), Assay 2. Particulars: serotonin reuptake inhibition, 3H-5-HT uptake, HEK-293 hSERT cells (values without asterisk); read-out: SERT pIC50 (converted). More on the design: expressed in transfected cells; host or cells: HEK-293. It counts as cell-based. The protocol:
as §1, §2

T1 sequence (P23975 whole entry): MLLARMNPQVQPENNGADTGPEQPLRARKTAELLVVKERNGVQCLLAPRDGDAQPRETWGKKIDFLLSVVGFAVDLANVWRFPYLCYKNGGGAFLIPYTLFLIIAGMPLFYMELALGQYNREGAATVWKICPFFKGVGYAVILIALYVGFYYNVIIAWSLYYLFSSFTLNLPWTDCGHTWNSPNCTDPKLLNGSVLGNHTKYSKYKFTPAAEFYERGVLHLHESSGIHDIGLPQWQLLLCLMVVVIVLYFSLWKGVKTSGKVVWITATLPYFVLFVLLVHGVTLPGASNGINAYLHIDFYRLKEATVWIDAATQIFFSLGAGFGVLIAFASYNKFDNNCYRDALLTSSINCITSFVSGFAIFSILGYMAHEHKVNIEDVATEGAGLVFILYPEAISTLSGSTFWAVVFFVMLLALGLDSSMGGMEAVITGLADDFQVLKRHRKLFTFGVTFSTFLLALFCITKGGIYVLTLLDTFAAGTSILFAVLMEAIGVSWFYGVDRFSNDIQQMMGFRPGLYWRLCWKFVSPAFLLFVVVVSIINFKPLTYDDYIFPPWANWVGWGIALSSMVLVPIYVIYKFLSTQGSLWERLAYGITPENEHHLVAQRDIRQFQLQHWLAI
T2 sequence (P31645 whole entry): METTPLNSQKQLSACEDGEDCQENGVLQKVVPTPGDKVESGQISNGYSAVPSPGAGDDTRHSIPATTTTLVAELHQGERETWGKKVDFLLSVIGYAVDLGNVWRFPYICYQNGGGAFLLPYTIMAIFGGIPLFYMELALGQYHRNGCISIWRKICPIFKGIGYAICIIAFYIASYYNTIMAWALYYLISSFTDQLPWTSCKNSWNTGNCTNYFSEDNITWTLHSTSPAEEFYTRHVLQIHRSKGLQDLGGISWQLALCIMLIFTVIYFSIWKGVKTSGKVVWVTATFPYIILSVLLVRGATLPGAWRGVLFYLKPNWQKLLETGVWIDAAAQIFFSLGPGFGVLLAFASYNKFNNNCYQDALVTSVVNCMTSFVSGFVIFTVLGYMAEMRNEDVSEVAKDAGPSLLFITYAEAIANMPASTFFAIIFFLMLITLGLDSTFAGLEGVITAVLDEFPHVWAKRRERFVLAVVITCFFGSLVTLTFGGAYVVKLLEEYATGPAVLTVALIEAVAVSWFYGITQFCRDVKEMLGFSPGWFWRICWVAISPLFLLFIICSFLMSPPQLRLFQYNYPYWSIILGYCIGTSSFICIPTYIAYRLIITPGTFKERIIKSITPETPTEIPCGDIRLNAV

Turning to `CCCC[C@@H](Oc1ccccc1C(F)(F)F)[C@H]1CCNC1` [Example 8-2, (S)-3-[(R)-1-(2-Trifluoromethylphenoxy)pentyl]pyrrolidine], the IC50 at hNET [1] and at hSERT [4] was not above 100 nM each time. The Ki on hNET [2] and on hSERT [3] was not above 10 nM throughout.
With `Cc1c(Cl)cccc1O[C@@H](C(C)C)[C@H]1CCNC1` [Example 6-39, (S)-3-[(S)-1-(3-Chloro-2-methylphenoxy)-2-methylpropyl]pyrrolidine], the IC50 at hNET [1] and at hSERT [4] was not above 10 nM throughout. Further, the Ki at hNET [2] and on hSERT [3] was not above 10 nM throughout.
`Clc1cc(Cl)cc(O[C@H](C2CC2)[C@H]2CCNC2)c1` [Example 16-97, (S)-3-[(R)cyclopropyl-(3,5-dichlorophenoxy)methyl]pyrrolidine]: the IC50 at hNET [1] and on hSERT [4] was not above 10 nM throughout. Further, the inhibitory constant (Ki) at hNET [2] and on hSERT [3] was not above 10 nM each time.
Take `CC(C)C[C@H](Oc1ccc(Cl)c(F)c1F)[C@H]1CCNC1` [Example 10-68, (S)-3-[(S)-1-(4-Chloro-2,3-difluorophenoxy)-3-methylbutyl]pyrrolidine]: the IC50 at hNET [1] and at hSERT [4] was not above 10 nM throughout. In addition, the Ki at hNET [2] and at hSERT [3] was not above 10 nM throughout.
As to `CC(C)CC(Oc1ccc(C(F)(F)F)cc1)C1CCNC1` (centres unmarked) [Example 10-15, 3-[3-Methyl-1-(4-trifluoromethylphenoxy)butyl]pyrrolidine], the IC50 at hNET [1] was not above 100 nM; on hSERT [4], not above 10 nM. Moreover, the Ki at hNET [2] and on hSERT [3] was not above 10 nM each time.
As for `CC(C)[C@@H](Oc1ccc(Cl)cc1)[C@@H]1CCNC1` [Example 6-75, (R)-3-[(R)-1-(4-Chlorophenoxy)-2-methylpropyl]pyrrolidine], the IC50 at hNET [1] is not above 100 nM; at hSERT [4], not above 10 nM. Also, the results for the Ki on hNET [2] and on hSERT [3] were not above 100 nM and not above 10 nM, respectively.
In the case of `Fc1cc(Cl)cc(O[C@@H](C2CC2)[C@H]2CCNC2)c1` [Example 16-98, (S)-3-[(S)-(3-Chloro-5-fluorophenoxy)cyclopropylmethyl]pyrrolidine], the IC50 on hNET [1] was not above 10 nM; at hSERT [4] it was not above 100 nM. The inhibition constant Ki at hNET [2] and on hSERT [3] was not above 10 nM throughout.
For `CC(C)CC(Oc1cccc(Cl)c1Cl)C1CCNC1` (centres unmarked) [Example 10-22, 3-[1-(2,3-Dichlorophenoxy)-3-methylbutyl]pyrrolidine], the IC50 on hNET [1] and on hSERT [4] was not above 10 nM each time. Also, the Ki on hNET [2] and on hSERT [3] was not above 10 nM each time.
Take `COc1ccc(F)c(O[C@H](C2CC2)[C@H]2CCNC2)c1Cl` [Example 16-65, (S)-3-[(R)-(2-Chloro-6-fluoro-3-methoxyphenoxy)cyclopropylmethyl]pyrrolidine]: the IC50 on hNET [1] and on hSERT [4] was not above 10 nM in each case. For the same molecule, the Ki on hNET [2] and at hSERT [3] was not above 10 nM each time.
For `CC[C@H](Oc1ccc(Cl)cc1F)[C@H]1CCNC1` [Example 2-47, (S)-3-[(S)-1-(4-Chloro-2-fluorophenoxy)propyl]pyrrolidine], the IC50 on hNET [1] is not above 10 nM; at hSERT [4] it was not above 100 nM. Moreover, the Ki on hNET [2] and on hSERT [3] was not above 10 nM in each case.
For `CCCC[C@@H](Oc1ccc(Cl)cc1)[C@H]1CCNC1` [Example 8-4, (S)-3-[(R)-1-(4-Chlorophenoxy)pentyl]pyrrolidine], the IC50 on hNET [1] and on hSERT [4] was not above 10 nM throughout. For the same molecule, the Ki on hNET [2] and at hSERT [3] was not above 10 nM throughout.
Regarding `Cc1cc(Cl)ccc1O[C@H](CC(C)C)[C@H]1CCNC1` [Example 10-45, (S)-3-[(R)-1-(4-Chloro-2-methylphenoxy)-3-methylbutyl]pyrrolidine], the IC50 at hNET [1] and on hSERT [4] was not above 10 nM in each case. Moreover, the inhibition constant Ki on hNET [2] and on hSERT [3] was not above 10 nM throughout.
Turning to `CC(C)[C@H](Oc1ccc(Cl)cc1Cl)[C@H]1CCNC1` [Example 6-21, (S)-3-[(S)-1-(2,4-Dichlorophenoxy)-2-methylpropyl]pyrrolidine], the IC50 at hNET [1] and at hSERT [4] was not above 10 nM each time. The Ki at hNET [2] and on hSERT [3] was not above 10 nM throughout.
On to `CCC[C@@H](Oc1ccc(Cl)c(Cl)c1)[C@H]1CCNC1` [Example 4-13, (S)-3-[(R)-1-(3,4-Dichlorophenoxy)butyl]pyrrolidine], for which the IC50 at hNET [1] and at hSERT [4] was not above 10 nM each time. Moreover, the Ki at hNET [2] and on hSERT [3] was not above 10 nM throughout.
As to `CC(C)C[C@@H](Oc1cc(Cl)cc(Cl)c1)[C@H]1CCNC1` [Example 10-79, (S)-3-[(R)-1-(3,5-Dichlorophenoxy)-3-methylbutyl]pyrrolidine], the IC50 on hNET [1] and at hSERT [4] was not above 10 nM each time. Also, the Ki at hNET [2] and at hSERT [3] was not above 10 nM in each case.
Regarding `CCc1cc(F)ccc1O[C@@H](CC)[C@H]1CCNC1` [Example 2-66, (S)-3-[(S)-1-(2-Ethyl-4-fluorophenoxy)propyl]pyrrolidine], the IC50 at hNET [1] and on hSERT [4] was not above 10 nM throughout. The Ki on hNET [2] and at hSERT [3] was not above 10 nM in each case.
As for `CC(C)C[C@H](Oc1cccc(F)c1)[C@H]1CCNC1` [Example 10-5, (S)-3-[(S)-1-(3-Fluorophenoxy)-3-methylbutyl]pyrrolidine], the IC50 on hNET [1] is not above 10 nM; on hSERT [4], not above 100 nM. In addition, the inhibitory constant (Ki) at hNET [2] and at hSERT [3] was not above 10 nM throughout.
Take `CC(C)[C@H](Oc1cc(Cl)cc(Cl)c1)[C@H]1CCNC1` [Example 6-66, (S)-3-[(S)-1-(3,5-Dichlorophenoxy)-2-methylpropyl]pyrrolidine]: the results for the IC50 on hNET [1] and on hSERT [4] were not above 100 nM and not above 10 nM, respectively. Further, the Ki on hNET [2] is not above 100 nM; on hSERT [3], not above 10 nM.
Regarding `CCCC[C@@H](Oc1ccc(F)cc1)[C@H]1CCNC1` [Example 8-3, (S)-3-[(R)-1-(4-Fluorophenoxy)pentyl]pyrrolidine], the IC50 on hNET [1] and at hSERT [4] was not above 100 nM throughout. Moreover, the inhibition constant Ki on hNET [2] and at hSERT [3] was not above 10 nM throughout.
Turning to `COc1ccccc1O[C@@H](CC(C)C)[C@H]1CCNC1` [Example 10-4, (S)-3-[(S)-1-(2-Methoxyphenoxy)-3-methylbutyl]pyrrolidine], the values for the IC50 at hNET [1] and at hSERT [4] were not above 10 nM and not above 100 nM, respectively. Also, the inhibition constant (Ki) at hNET [2] and on hSERT [3] was not above 10 nM throughout.
Consider `CCC[C@H](Oc1ccc(Cl)c(F)c1)[C@H]1CCNC1` [Example 4-18, (S)-3-[(S)-1-(4-Chloro-3-fluorophenoxy)butyl]pyrrolidine], for which the IC50 at hNET [1] and on hSERT [4] was not above 10 nM each time. For the same molecule, the inhibition constant Ki on hNET [2] and at hSERT [3] was not above 10 nM in each case.
As to `CCC[C@H](Oc1cccc2ccccc12)[C@H]1CCNC1` [Example 14-3, (S)-3-[(S)-1-(Naphthalen-1-yloxy)butyl]pyrrolidine], the IC50 on hNET [1] and on hSERT [4] was not above 10 nM in each case. The Ki at hNET [2] and on hSERT [3] was not above 10 nM throughout.
On to `Cc1ccc(O[C@H](C2CC2)[C@H]2CCNC2)c(F)c1F` [Example 16-51, (S)-3-[(R)cyclopropyl-(2,3-difluoro-4-methylphenoxy)methyl]pyrrolidine], for which the IC50 at hNET [1] and at hSERT [4] was not above 10 nM each time. Also, the Ki on hNET [2] and at hSERT [3] was not above 10 nM in each case.
For the molecule `CC[C@H](Oc1c(F)ccc(Cl)c1F)[C@H]1CCNC1` [Example 2-52, (S)-3-[(S)-1-(3-Chloro-2,6-difluorophenoxy)propyl]pyrrolidine], the IC50 is not above 10 nM at hNET [1] and not above 100 nM at hSERT [4]. Further, the Ki on hNET [2] and at hSERT [3] was not above 10 nM each time.
Consider `CC(C)CC(Oc1cccc(F)c1)C1CCNC1` (centres unmarked) [Example 10-26, 3-[1-(3-Fluorophenoxy)-3-methylbutyl]pyrrolidine], for which the IC50 on hNET [1] and on hSERT [4] was not above 10 nM each time. On hSERT [3], this molecule had an inhibitory constant (Ki) not above 10 nM.
Consider `CCCC[C@@H](Oc1ccc(Cl)cc1C(F)(F)F)[C@H]1CCNC1` [Example 8-11, (S)-3-[(R)-1-(4-Chloro-2-trifluoromethylphenoxy)pentyl]pyrrolidine], for which the Ki at hNET [2] and at hSERT [3] was not above 10 nM each time.
`CCC[C@@H](Oc1cccc(Cl)c1C(F)(F)F)[C@H]1CCNC1` [Example 4-69, (S)-3-[(R)-1-(3-Chloro-2-trifluoromethylphenoxy)butyl]pyrrolidine]: the Ki was not above 100 nM on hNET [2] and not above 10 nM on hSERT [3].
Take `CC(C)C(Oc1cccc(F)c1)C1CCNC1` (centres unmarked) [Example 6-55, 3-[1-(3-Fluorophenoxy)-2-methylpropyl]pyrrolidine]: the inhibitory constant (Ki) at hNET [2] and on hSERT [3] was not above 100 nM in each case.
As to `CC[C@H](Oc1ccc(C(F)(F)F)cc1)[C@H]1CCNC1` [Example 2-17, (S)-3-[(S)-1-(4-Trifluoromethylphenoxy)propyl]pyrrolidine], the inhibitory constant (Ki) on hNET [2] was not above 100 nM; at hSERT [3], not above 10 nM.
